Measurements published in patent EP1650209A1, “Griseusin derivatives and their use as antitumor agents” (Oncotest GmbH, priority 2004, dated 2006).
In brackets after ≈: the same amount, converted by molar mass.

Legend:
Test in all cases: Clonogenic assay, colony formation of tumor stem cells from xenografts
Type in all cases: cell-based, human
LXFS 538 = settings: Lung, small cell, xenograft LXFS 538, colony formation
DU-145 = settings: Prostate, xenograft DU-145, colony formation
Description: (§1) Using various human cancer xenografts in vitro, the concentrations of compound B which inhibit formation of tumor colonies of tumor stem cells by 50% (IC50) and 70% (IC70) are determined in a clonogenic assay. Specifically, each solid tumor of bladder cancer (BXF 1036 and BXF 1299), cervical cancer (CEXF 633 and CEXF 773), colic cancer (CXF 1103, CXF 158, CXF 1729, CXF 264 and CXF 280), gastric cancer (GXF 251 and GXF 97), head and neck cancer (HNXF 536), liver cancer (LIXF 575), non small cell lung cancer comprising adeno, squamous epithelium and large cell carcinoma (LXFA 1012, LXFA 289, LXFA 297, LXFA 526, LXFA 592, LXFA 629, LXFA 677, LXFE 409, LXFL 1072, LXFL 430LX and LXFL 529), small cell lung cancer (LXFS 650), mammary cancer (MAXF 1162, MAXF 1384, MAXF 401, MAXF 449, MAXF 574, MAXF 583, MAXF 713 and MAXF 857), melanoma (MEXF 1341, MEXF 462, MEXF 535 and MEXF 989), ovary cancer (OVXF 899), pancreatic cancer (PAXF 546 and PAXF 736), prostate cancer (DU-145 and PC3M), pleuramesothelioma (PXF 1752), renal cancer (RXF 1220, RXF 1393, RXF 393, RXF 631 and RXF 944LX), and sarcoma (SXF 1301 and SXF 463) engrafted on RPMI nu/nu thymus aplastic nude mice were explanted, disaggregated by mincing and enzymatic digestion for 50 minutes using 125 U/mL DNAse I, 41 U/mL collagenase IV, 100 U/ml hyaluronidase III, and 1 U/mL dispase I, and passed through sieves of 200 µm and 50 µm mesh size and washed twice with sterile PBS-buffer to remove cell aggregated from single cells. The clonogenic assay was performed in a 24 multiwell format. Each of the resulting single cell suspensions was added at a density of 2·10^4 to 6·10^4 cells per well to 0.2 ml of Iscove's Modified Dulbecco's Medium (IMDM) containing 20% fetal calf serum and 0.01% gentamicin supplemented with 0.4% (w/v) agar, and plated onto a bottom layer consisting of the same culture medium containing 0.75% (w/v) agar. After 24 hours IMDM containing 20% fetal calf serum and 0.01 % gentamicin, together with a test compound, was added there to. Then, the plate was incubated at 37°C for 10 to 20 days in a humidified atmosphere of air containing 7.5% CO2. Within this period, in vitro tumor growth led to the formation of colonies with a diameter of > 50µm. Colony counts were performed with an automatic image analysis system (OMNICON 3600). 24 hours prior to evaluation, vital colonies were stained with a vital staining dye. Therefore, 100 µl of a sterile aqueous solution of 2-(4-iodophenyl)-3-(4-nitrophenyl)-5-phenyltetrazolium chloride (1 mg/ml) were added to each well of the plate, and plates were incubated for 24 hours at 37°C in a humidified atmosphere of air containing 7.5% CO2. Inhibition of colony formation was expressed as test versus untreated control (T/C-value [%]). IC50 and IC70 values were determined by plotting compound concentration versus cell viability. Table 3: Inhibition of Colony Formation of Tumor Stem Cells by griseusin derivative B

LXFL 430LX = settings: Lung, non small cell, xenograft LXFL 430LX
Description: as §1

MEXF 1341 = settings: Melanoma, xenograft MEXF 1341, colony formation
Description: as §1

MAXF 713 = settings: Breast, xenograft MAXF 713, colony formation
Description: as §1

MEXF 989 = settings: Melanoma, xenograft MEXF 989, colony formation
Description: as §1

SXF 463 = settings: Sarcoma, xenograft SXF 463, colony formation
Description: as §1

LIXF 575 = settings: Liver, xenograft LIXF 575, colony formation
Description: as §1

BXF 1299 = settings: Bladder, xenograft BXF 1299, colony formation
Description: as §1

SXF 1301 = settings: Sarcoma, xenograft SXF 1301, colony formation
Description: as §1

LXFA 297 = settings: Lung, non small cell, xenograft LXFA 297, colony formation
Description: as §1

MAXF 401 = settings: Breast, xenograft MAXF 401, colony formation
Description: as §1

LXFA 592 = settings: Lung, non small cell, xenograft LXFA 592, colony formation
Description: as §1

LXFA 677 = settings: Lung, non small cell, xenograft LXFA 677, colony formation
Description: as §1

CXF 1103 = settings: Colon, xenograft CXF 1103, colony formation
Description: as §1

MEXF 535 = settings: Melanoma, xenograft MEXF 535, colony formation
Description: as §1

LXFL 529 = settings: Lung, non small cell, xenograft LXFL 529, colony formation
Description: as §1

OVXF 899 = settings: Ovary, xenograft OVXF 899, colony formation
Description: as §1

IC50 (LXFS 538): 0.307 µg/mL (≈ 0.767 µM)
IC50 (DU-145): 1.086 µg/mL (≈ 2.71 µM)
IC50 (LXFL 430LX): 0.272 µg/mL (≈ 0.679 µM)
IC50 (MEXF 1341): 0.462 µg/mL (≈ 1.15 µM)
IC50 (MAXF 713): 0.498 µg/mL (≈ 1.24 µM)
IC50 (MEXF 989): 0.118 µg/mL (≈ 0.295 µM)
IC50 (SXF 463): 0.235 µg/mL (≈ 0.587 µM)
IC50 (LIXF 575): 0.616 µg/mL (≈ 1.54 µM)
IC50 (BXF 1299): 1.107 µg/mL (≈ 2.77 µM)
IC50 (SXF 1301): 0.328 µg/mL (≈ 0.819 µM)
IC50 (LXFA 297): 1.461 µg/mL (≈ 3.65 µM)
IC50 (MAXF 401): 0.478 µg/mL (≈ 1.19 µM)
IC50 (LXFA 592): 0.215 µg/mL (≈ 0.537 µM)
IC50 (LXFA 677): 0.974 µg/mL (≈ 2.43 µM)
IC50 (CXF 1103): 0.173 µg/mL (≈ 0.432 µM)
IC50 (MEXF 535): 0.055 µg/mL (≈ 0.137 µM)
IC50 (LXFL 529): 0.364 µg/mL (≈ 0.909 µM)
IC50 (OVXF 899): 0.468 µg/mL (≈ 1.17 µM)
Structure (SMILES): C[C@@H]1CC(=O)[C@@H](O)[C@]2(O1)O[C@@H]1CC(=O)O[C@@H]1C1=C2C(=O)c2c(O)cccc2C1=O [Compound B, 4'-dehydro-deacetylgriseusin A]
IC70 (LXFS 538): 0.502 µg/mL (≈ 1.25 µM)
IC70 (DU-145): 1.644 µg/mL (≈ 4.11 µM)
IC70 (LXFL 430LX): 0.468 µg/mL (≈ 1.17 µM)
IC70 (MEXF 1341): 0.673 µg/mL (≈ 1.68 µM)
IC70 (MAXF 713): 0.700 µg/mL (≈ 1.75 µM)
IC70 (MEXF 989): 0.182 µg/mL (≈ 0.455 µM)
IC70 (SXF 463): 0.334 µg/mL (≈ 0.834 µM)
IC70 (LIXF 575): 0.764 µg/mL (≈ 1.91 µM)
IC70 (BXF 1299): 1.662 µg/mL (≈ 4.15 µM)
IC70 (SXF 1301): 0.517 µg/mL (≈ 1.29 µM)
IC70 (LXFA 297): 2.179 µg/mL (≈ 5.44 µM)
IC70 (MAXF 401): 0.782 µg/mL (≈ 1.95 µM)
IC70 (LXFA 592): 0.468 µg/mL (≈ 1.17 µM)
IC70 (LXFA 677): 8.063 µg/mL (≈ 20.1 µM)
IC70 (CXF 1103): 0.529 µg/mL (≈ 1.32 µM)
IC70 (MEXF 535): 0.094 µg/mL (≈ 0.235 µM)
IC70 (LXFL 529): 0.699 µg/mL (≈ 1.75 µM)
IC70 (OVXF 899): 0.731 µg/mL (≈ 1.83 µM)
